Where “and” joins values, the source holds several entries; their conditions need not be identical. Identical values can stand only once.
Legend:
Assay type in all cases: in vivo
dopamine transporter [1] = target: T1, dopamine transporter (Homo sapiens, UniProt Q01959); assay: Striatum right:left ratio from DaTSCAN SBR data of normal subjects, ENCDAT database
T1 construct: from tissue; host or cells: striatum of living normal human subjects (in vivo SPECT imaging, ENCDAT and PPMI databases)
Text: Using the method of the present invention, the data from Example 1 was used to calculate a striatum right:left ratio:
Table 3 below uses SBR data for normal subjects from the ENC DAT database. Three subjects from each of five different sites are shown, but the overall average is based on data from 11 sites: […]

dopamine transporter [2] = target: T1, dopamine transporter; assay: Striatal binding ratio (SBR) from DaTSCAN images of normal subjects, ENCDAT database; conditions: mean ±1 SD
Experimental: The European Association of Nuclear Medicine RESEARCH4LIFE© initiative (“EARL”) has been compiling a database of DaTSCAN images of normal human subjects since 2007 (see http://earl.eanm.org/cms/website.php?id=/en/projects/enc-dat.htm). The ENCDAT database includes 150 normal subjects—with data from a range of camera types. SBR was calculated for the 150 normal subjects (Group A):
[formula] • where: • SBR=specific binding ratio or striatum binding ratio, • ROI=region of interest. Brain imaging data for n=37 normal subjects acquired on GE cameras in the ENCDAT database was used for the calculation of SBR (Group B). SBR for an illustrative patient from the ENCDAT database is also shown: […]

dopamine transporter [3] = target: T1, dopamine transporter; assay: Patient classification from Datscan clinical trial data using SBR plus L/R asymmetry, versus clinical diagnosis
Experimental: The 104 patient data set from Example 4 was analysed using SBR together with the L/R asymmetry of the present invention.

dopamine transporter [4] = target: T1, dopamine transporter; assay: Normal database (PPMI, ENCDAT) DaTSCAN scans, SBR method averaged per decade of life; conditions: normal subjects
Experimental: Two databases of scans of DaTSCAN™ (GE Healthcare Ltd) normal human subjects were evaluated using: • (i) the SBR method of the prior art (see Example 1), with the occipital cortex as the reference region; • (ii) the L/R ratio method of the present invention. The PPMI database was of 122 subjects (age range 31-84; 62% male 38% female). The ENCDAT database was of 122 subjects (age range 20-82; 52% male 48% female). The data from all subjects in each decade of life (20 s, 30 s etc) were averaged.

dopamine transporter [5] = target: T1, dopamine transporter; assay: Patient classification from Datscan clinical trial data using SBR only, versus clinical diagnosis
Experimental: The data from two GE Healthcare Ltd clinical trials of Datscan™: • (i) comparing PD and ET; • (ii) clinically uncertain PD; 104 patients in total were analysed using SBR calculation only. Each determination was compared with the patient determination based on clinical symptoms.
This gives a sensitivity of 71%, specificity of 96% and accuracy of 82% for the SBR technique. The clinical diagnosis was assumed to be the ‘true’ diagnosis, and sensitivity and specificity can then be calculated. Sensitivity=100×True Positives/(True Positives+False Negatives)=100×42/59=71%. Specificity=100×True Negatives/(True Negatives+False Positives)=100×43/45=96%. Accuracy=100×(True Positives+True Negatives)/Population=100×(42+43)/104=82%.

[6] = WHOLE mean, overall average of 11 sites
[7] = individual normal subjects, three per site, sites 1-5
[8] = Normal A: 150 normal subjects, range of camera types
[9] = Normal B: n=37 normal subjects, GE cameras
[10] = 104 patients, SBR with L/R asymmetry
[11] = SBR plus asymmetry, clinical diagnosis as truth
[12] = SBR technique, clinical diagnosis as truth

T1 sequence (Q01959 whole entry): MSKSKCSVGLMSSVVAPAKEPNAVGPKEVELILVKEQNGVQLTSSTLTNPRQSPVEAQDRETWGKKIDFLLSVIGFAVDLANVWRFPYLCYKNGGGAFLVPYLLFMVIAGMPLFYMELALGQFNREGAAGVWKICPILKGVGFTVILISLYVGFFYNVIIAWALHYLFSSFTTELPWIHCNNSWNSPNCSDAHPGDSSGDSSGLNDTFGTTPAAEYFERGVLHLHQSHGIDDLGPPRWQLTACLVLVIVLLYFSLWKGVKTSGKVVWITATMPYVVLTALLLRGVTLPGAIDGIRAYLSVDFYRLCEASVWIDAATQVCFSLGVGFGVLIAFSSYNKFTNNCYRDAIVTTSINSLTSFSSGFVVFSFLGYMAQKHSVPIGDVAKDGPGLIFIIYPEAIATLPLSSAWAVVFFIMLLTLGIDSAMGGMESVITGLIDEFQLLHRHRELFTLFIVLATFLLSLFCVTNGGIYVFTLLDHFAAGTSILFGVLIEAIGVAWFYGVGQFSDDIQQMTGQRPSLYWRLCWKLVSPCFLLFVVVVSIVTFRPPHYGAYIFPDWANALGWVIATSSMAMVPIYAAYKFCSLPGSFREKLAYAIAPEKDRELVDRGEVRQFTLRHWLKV

With `COC(=O)[C@H]1[C@@H](c2ccc([123I])cc2)C[C@@H]2CC[C@H]1N2CCCF` [DaTSCAN, ^123I-ioflupane] the “SBR left, normal range” value (dopamine transporter [1]; Normal range (+/-1 SD)) was 1.79-3.05, the “SBR right, normal range” value (dopamine transporter [1]; Normal range (+/-1 SD)) was 1.78-3.04 and the “Striatum Right:left, normal range” value (dopamine transporter [1]; Normal range (+/-1 SD)) was 0.96-1.04. The “Striatum Right:left” value (dopamine transporter [1]; Normal subjects, mean +/-1 SD) was 1.00 +/− 0.04, the “Anterior putamen R:L ratio” value (dopamine transporter [1]; [6]) was 1.00 and the “Caudate R:L ratio” value (dopamine transporter [1]; [6]) was 0.99. The “Posterior Putamen R:L ratio” value (dopamine transporter [1]; [6]) was 1.01, the “Putamen R:L ratio” value (dopamine transporter [1]; [6]) was 1.01 and the “SBR Striatum L” value (dopamine transporter [1]; [6]) was 2.88. The “SBR Striatum R” value (dopamine transporter [1]; [6]) was 2.88, the “Striatum R:L ratio” value (dopamine transporter [1]; [6]) was 1.00 and the “Anterior putamen R:L ratio” value (dopamine transporter [1]; [7]) was 1.03 (2×) and 1.00 (4×) and 0.91 and 0.98 and 0.97 and 1.01 (3×) and 1.06 and 0.99 and 0.96. For the same compound, the “Caudate R:L ratio” value (dopamine transporter [1]; [7]) was 0.98 and 1.02 and 0.97 and 1.05 (3×) and 0.89 and 1.03 (3×) and 1.15 and 1.11 and 1.07 and 0.94 and 1.01, the “Posterior Putamen R:L ratio” value (dopamine transporter [1]; [7]) was 1.03 and 1.08 and 1.18 (2×) and 1.00 and 1.05 and 0.99 and 1.20 and 1.07 (3×) and 1.02 and 1.11 (2×) and 0.93 and the “Putamen R:L ratio” value (dopamine transporter [1]; [7]) was 1.03 (2×) and 1.02 and 1.04 (2×) and 1.05 (2×) and 0.93 and 1.00 (3×) and 0.98 and 1.06 and 1.07 and 0.99. The “SBR Striatum L” value (dopamine transporter [1]; [7]) was 3.25 and 2.58 and 3.11 and 2.60 and 2.94 and 1.88 and 4.03 and 2.33 and 3.28 and 2.62 and 2.37 and 2.50 and 4.79 and 3.22 and 3.09, the “SBR Striatum R” value (dopamine transporter [1]; [7]) was 3.29 and 2.65 and 3.16 and 2.74 and 2.69 and 1.91 and 4.06 and 2.56 and 3.57 and 2.70 and 2.37 and 2.62 and 4.93 and 3.23 and 3.15 and the “Striatum R:L ratio” value (dopamine transporter [1]; [7]) was 1.01 (2×) and 1.03 (3×) and 1.02 (3×) and 1.05 (2×) and 0.92 and 1.10 and 1.09 and 1.00 (2×). For the same compound, the “SBR Striatum left” value (dopamine transporter [2]; [8]) was 2.88 ± 0.69 and 2.88 +/− 0.69, the “SBR Striatum right” value (dopamine transporter [2]; [8]) was 2.88 ± 0.65 and 2.88 +/− 0.65 and the “SBR Striatum left” value (dopamine transporter [2]; [9]) was 2.42 +/− 0.63. The “SBR Striatum right” value (dopamine transporter [2]; [9]) was 2.41 +/− 0.63, the “number of subjects: SBR + Asymmetry Abnormal, Clinical Abnormal” value (dopamine transporter [3]; [10]) was 54 and the “number of subjects: SBR + Asymmetry Abnormal, Clinical Normal” value (dopamine transporter [3]; [10]) was 11. The “number of subjects: SBR + Asymmetry Normal, Clinical Abnormal” value (dopamine transporter [3]; [10]) was 5, the “number of subjects: SBR + Asymmetry Normal, Clinical Normal” value (dopamine transporter [3]; [10]) was 34 and the accuracy (dopamine transporter [3]; [11]) was 85%. The sensitivity (dopamine transporter [3]; [11]) was 92%, the specificity (dopamine transporter [3]; [11]) was 76% and the SBR (dopamine transporter [4]; eighties age group) was “about 2.2”. The SBR (dopamine transporter [4]; thirties age group) was “about 3.2”, the “number of subjects: SBR Abnormal, Clinical Abnormal” value (dopamine transporter [5]; 104 patients, SBR only) was 42 and the “number of subjects: SBR Abnormal, Clinical Normal” value (dopamine transporter [5]; 104 patients, SBR only) was 2. For the same compound, the “number of subjects: SBR Normal, Clinical Abnormal” value (dopamine transporter [5]; 104 patients, SBR only) was 17, the “number of subjects: SBR Normal, Clinical Normal” value (dopamine transporter [5]; 104 patients, SBR only) was 43 and the accuracy (dopamine transporter [5]; [12]) was 82%. It also gave a sensitivity (dopamine transporter [5]; [12]) of 71% and a specificity (dopamine transporter [5]; [12]) of 96%.
